Test results: patent US20230218614A1, “COMPOUND FOR THE TREATMENT OF C[…]” (METRIOPHARM AG, priority 2020, published 2023)

Key:
Vero B4 cells = details: non-infected Vero B4 cells, antivirally effective concentrations, observation period of 3 days
Excerpt: Herein viable cells with an intact mitochondrial succinate-tetrazolium dehydrogenase system effect an enzymatic conversion of the feebly red tetrazolium salt WST-1 (4-[3-(4-iodophenyl)-2-(4-nitrophenyl)-2H-5-tetrazolio]-1,3 benzene disulfonate) into dark red formazan. This color change can be measured photometrically in a spectrophotometer. Thus, the WST assay is a very sensitive method for measuring the toxicity of substances on the cell metabolism. The value for untreated cells was set to 100%.
The value for untreated cells was set to 100%.

3-nitrotyrosine = details: ex vivo lung exposed to cigarette smoke; cited from earlier work

With `Nc1cccc2c(=O)[nH][nH]c(=O)c12.[Na]` [5-amino-2,3-dihydro-1,4-phthalazinedione sodium salt] the “toxic effect (cell viability, WST assay)” value (Vero B4 cells) was “does not display any significant toxic effect”, the “SARS-CoV-2 nucleocapsid protein (Western Blot bands)” value (SARS-CoV-2) was “clear reduction” and the “generation of SARS-CoV-2 proteins (densitometric evaluation of nucleocapsid)” value (SARS-CoV-2) was “inhibited dose-dependently”. The 3-nitrotyrosine (3-nitrotyrosine) was “nearly complete reduction”.
